Reference: ChEMBL document CHEMBL3612058, “Synthesis and biological evaluation of a new series of 2-amino-3-aroyl thiophene derivatives as agonist allosteric modulators of the A1 adenosine receptor. A position-dependent effect study” (Eur J Med Chem, 2015)

Legend:
[1] = target: T1, Adenosine receptor A1 (Homo sapiens) (UniProt P30542); assay: Binding affinity to human adenosine A1 receptor expressed in CHO cells assessed as fold Bmax shift of [3H]-CCPA at 10 uM after 90 mins by [3H]-CCPA binding assay relative to control; type: cell-based
T1 sequence (whole entry): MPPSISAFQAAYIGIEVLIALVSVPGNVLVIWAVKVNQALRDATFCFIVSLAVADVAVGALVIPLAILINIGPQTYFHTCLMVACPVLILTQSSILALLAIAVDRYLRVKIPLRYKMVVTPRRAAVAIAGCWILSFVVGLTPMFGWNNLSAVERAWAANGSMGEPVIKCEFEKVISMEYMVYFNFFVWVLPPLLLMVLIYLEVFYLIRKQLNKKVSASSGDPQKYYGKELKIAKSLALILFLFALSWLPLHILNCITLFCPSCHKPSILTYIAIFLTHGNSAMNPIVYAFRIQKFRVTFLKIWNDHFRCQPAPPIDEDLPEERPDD

[2] = target: T1, Adenosine receptor A1 (Homo sapiens); assay: Positive allosteric enhancement of human cloned adenosine A1 receptor expressed in CHO cells assessed as inhibition of forskolin-induced cAMP accumulation at 100 nM using [3H]-cAMP by scintillation counting relative to control in presence of 1 pM of CCPA; type: functional, cell-based
[3] = target: T1, Adenosine receptor A1 (Homo sapiens); assay: Binding affinity to human adenosine A1 receptor expressed in CHO cells assessed as fold Ki shift of CCPA at 10 uM after 90 mins by [3H]-CCPA displacement assay relative to control; type: cell-based
[4] = target: T1, Adenosine receptor A1 (Homo sapiens); assay: Positive allosteric enhancement of human cloned adenosine A1 receptor expressed in CHO cells assessed as inhibition of forskolin-induced cAMP accumulation at 10 uM using [3H]-cAMP by scintillation counting relative to control; type: functional, cell-based
[5] = target: T1, Adenosine receptor A1 (Homo sapiens); assay: Displacement of [3H]DPCPX from human adenosine A1 receptor expressed in CHO cells at 10 uM after 120 mins by scintillation counting; type: cell-based
[6] = target: T1, Adenosine receptor A1 (Homo sapiens); assay: Ratio of PD81723 to compound for positive allosteric enhancement of human cloned adenosine A1 receptor expressed in CHO cells assessed as inhibition of forskolin-induced cAMP accumulation at 10 uM using [3H]-cAMP by scintillation counting; type: functional, cell-based
[7] = Displacement of [3H]-ZM241385 from human adenosine A2 receptor expressed in CHO cells at 10 uM after 120 mins by scintillation counting; type: cell-based
[8] = target: T2, Adenosine receptor A3 (Homo sapiens) (UniProt P0DMS8); assay: Displacement of [3H]-MRE-3008-F20 from human adenosine A3 receptor expressed in CHO cells at 10 uM after 120 mins by scintillation counting; type: cell-based
T2 sequence (whole entry): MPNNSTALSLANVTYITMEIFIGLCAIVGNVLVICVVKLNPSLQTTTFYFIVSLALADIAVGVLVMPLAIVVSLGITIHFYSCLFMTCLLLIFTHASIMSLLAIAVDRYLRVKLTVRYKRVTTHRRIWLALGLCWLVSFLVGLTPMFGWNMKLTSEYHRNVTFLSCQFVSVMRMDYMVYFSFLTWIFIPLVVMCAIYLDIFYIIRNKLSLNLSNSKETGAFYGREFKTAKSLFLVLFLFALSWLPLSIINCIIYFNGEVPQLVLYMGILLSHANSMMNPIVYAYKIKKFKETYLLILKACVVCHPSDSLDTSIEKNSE

Compound: CSc1ccc(Cc2c(-c3ccc(F)cc3)sc(N)c2C(=O)c2ccc(Cl)cc2)cc1
- fold change (FC) [1]: 5.3
- inhibition [2]: 55%
- fold change (FC) [3]: 5.2
- inhibition [4]: 52%
- inhibition [5]: < 10%
- Ratio [6]: 3
- inhibition [7]: < 10%
- inhibition [8]: < 10%

Compound: COc1ccc(-c2sc(N)c(C(=O)c3ccc(Cl)cc3)c2Cc2ccccc2)cc1
- fold change (FC) [1]: 4.8
- inhibition [2]: 47%
- fold change (FC) [3]: 3.5
- inhibition [4]: 46%
- inhibition [5]: < 10%
- Ratio [6]: 3
- inhibition [7]: < 10%
- inhibition [8]: < 10%

Compound: COc1c(C)cc(Cc2c(-c3ccccc3)sc(N)c2C(=O)c2ccc(Cl)cc2)cc1C
- fold change (FC) [1]: 6.6
- inhibition [2]: 61%
- fold change (FC) [3]: 4.6
- inhibition [4]: 59%
- inhibition [5]: < 10%
- Ratio [6]: 3
- inhibition [7]: < 10%
- inhibition [8]: < 10%

Compound: COc1ccc(Cc2c(-c3ccccc3)sc(N)c2C(=O)c2ccc(Cl)cc2)cc1
- fold change (FC) [1]: 9.4
- inhibition [2]: 74%
- fold change (FC) [3]: 8.9
- inhibition [4]: 71%
- inhibition [5]: < 10%
- Ratio [6]: 3
- inhibition [7]: < 10%
- inhibition [8]: < 10%

Compound: Nc1sc(-c2ccccc2)c(Cc2ccc(C(F)(F)F)cc2)c1C(=O)c1ccc(Cl)cc1
- fold change (FC) [1]: 9.1
- inhibition [2]: 66%
- fold change (FC) [3]: 8.9
- inhibition [4]: 69%
- inhibition [5]: < 10%
- Ratio [6]: 3
- inhibition [7]: < 10%
- inhibition [8]: < 10%

Compound: COc1cccc(Cc2c(-c3ccccc3)sc(N)c2C(=O)c2ccc(Cl)cc2)c1
- fold change (FC) [1]: 7.3
- inhibition [2]: 63%
- fold change (FC) [3]: 6.9
- inhibition [4]: 66%
- inhibition [5]: < 10%
- Ratio [6]: 3
- inhibition [7]: < 10%
- inhibition [8]: < 10%

Compound: COc1ccc(Cc2c(-c3ccc(Cl)cc3)sc(N)c2C(=O)c2ccc(Cl)cc2)cc1
- fold change (FC) [1]: 8.5
- inhibition [2]: 67%
- fold change (FC) [3]: 6.6
- inhibition [4]: 70%
- inhibition [5]: < 10%
- Ratio [6]: 3
- inhibition [7]: < 10%
- inhibition [8]: < 10%

Compound: Nc1sc(-c2ccccc2)c(Cc2ccc(F)cc2)c1C(=O)c1ccc(Cl)cc1
- fold change (FC) [1]: 6.3
- inhibition [2]: 57%
- fold change (FC) [3]: 5.4
- inhibition [4]: 58%
- inhibition [5]: < 10%
- Ratio [6]: 3
- inhibition [7]: < 10%
- inhibition [8]: < 10%

Compound: Nc1sc(-c2ccccc2)c(Cc2ccccc2)c1C(=O)c1ccc(Cl)cc1
- fold change (FC) [1]: 4.9
- inhibition [2]: 50%
- fold change (FC) [3]: 4.2
- inhibition [4]: 51%
- inhibition [5]: < 10%
- Ratio [6]: 3
- inhibition [7]: < 10%
- inhibition [8]: < 10%

Compound: Nc1sc(-c2ccc(F)cc2)c(Cc2ccc(F)cc2)c1C(=O)c1ccc(Cl)cc1
- fold change (FC) [1]: 4.8
- inhibition [2]: 41%
- fold change (FC) [3]: 3.7
- inhibition [4]: 45%
- inhibition [5]: < 10%
- Ratio [6]: 3
- inhibition [7]: < 10%
- inhibition [8]: < 10%

Compound: COc1ccc(-c2sc(N)c(C(=O)c3ccc(Cl)cc3)c2Cc2ccc(Cl)cc2)cc1
- fold change (FC) [1]: 5
- inhibition [2]: 48%
- fold change (FC) [3]: 3.9
- inhibition [4]: 49%
- inhibition [5]: < 10%
- Ratio [6]: 3
- inhibition [7]: < 10%
- inhibition [8]: < 10%

Compound: COc1ccc(Cc2c(-c3ccc(F)cc3)sc(N)c2C(=O)c2ccc(Cl)cc2)cc1
- fold change (FC) [1]: 6.3
- inhibition [2]: 59%
- fold change (FC) [3]: 5.4
- inhibition [4]: 58%
- inhibition [5]: < 10%
- Ratio [6]: 3
- inhibition [7]: < 10%
- inhibition [8]: < 10%

Compound: CCOc1ccc(Cc2c(-c3ccccc3)sc(N)c2C(=O)c2ccc(Cl)cc2)cc1
- fold change (FC) [1]: 9.1
- inhibition [2]: 69%
- fold change (FC) [3]: 8
- inhibition [4]: 68%
- inhibition [5]: < 10%
- Ratio [6]: 3
- inhibition [7]: < 10%
- inhibition [8]: < 10%

Compound: COc1ccccc1Cc1c(-c2ccccc2)sc(N)c1C(=O)c1ccc(Cl)cc1
- fold change (FC) [1]: 5.6
- inhibition [2]: 51%
- fold change (FC) [3]: 4.9
- inhibition [4]: 55%
- inhibition [5]: < 10%
- Ratio [6]: 3
- inhibition [7]: < 10%
- inhibition [8]: < 10%

Compound: CSc1ccc(Cc2c(-c3ccccc3)sc(N)c2C(=O)c2ccc(Cl)cc2)cc1
- fold change (FC) [1]: 6.6
- inhibition [2]: 65%
- fold change (FC) [3]: 6.3
- inhibition [4]: 63%
- inhibition [5]: < 10%
- Ratio [6]: 3
- inhibition [7]: < 10%
- inhibition [8]: < 10%

Compound: Cc1ccc(Cc2c(-c3ccccc3)sc(N)c2C(=O)c2ccc(Cl)cc2)cc1
- fold change (FC) [1]: 5.6
- inhibition [2]: 58%
- fold change (FC) [3]: 5.1
- inhibition [4]: 56%
- inhibition [5]: < 10%
- Ratio [6]: 3
- inhibition [7]: < 10%
- inhibition [8]: < 10%

Compound: Cc1ccc(Cc2c(-c3ccc(F)cc3)sc(N)c2C(=O)c2ccc(Cl)cc2)cc1
- fold change (FC) [1]: 6.5
- inhibition [2]: 62%
- fold change (FC) [3]: 5.6
- inhibition [4]: 59%
- inhibition [5]: < 10%
- Ratio [6]: 3
- inhibition [7]: < 10%
- inhibition [8]: < 10%

Compound: Nc1sc(-c2ccc(Cl)cc2)c(Cc2ccc(F)cc2)c1C(=O)c1ccc(Cl)cc1
- fold change (FC) [1]: 9.1
- inhibition [2]: 73%
- fold change (FC) [3]: 9.5
- inhibition [4]: 75%
- inhibition [5]: < 10%
- Ratio [6]: 3
- inhibition [7]: < 10%
- inhibition [8]: < 10%

Compound: Cc1ccc(Cc2c(-c3ccc(Cl)cc3)sc(N)c2C(=O)c2ccc(Cl)cc2)cc1
- fold change (FC) [1]: 8.6
- inhibition [2]: 69%
- fold change (FC) [3]: 7.2
- inhibition [4]: 71%
- inhibition [5]: < 10%
- Ratio [6]: 3
- inhibition [7]: < 10%
- inhibition [8]: < 10%

Compound: Nc1sc(-c2ccccc2)c(Cc2ccc(Cl)cc2)c1C(=O)c1ccc(Cl)cc1
- fold change (FC) [1]: 6.4
- inhibition [2]: 64%
- fold change (FC) [3]: 5.6
- inhibition [4]: 61%
- inhibition [5]: < 10%
- Ratio [6]: 3
- inhibition [7]: < 10%
- inhibition [8]: < 10%

Compound: COc1ccc(Cc2c(-c3ccccc3)sc(N)c2C(=O)c2ccc(Cl)cc2)c(OC)c1
- fold change (FC) [1]: 5.6
- inhibition [2]: 53%
- fold change (FC) [3]: 4.2
- inhibition [4]: 52%
- inhibition [5]: < 10%
- Ratio [6]: 3
- inhibition [7]: < 10%
- inhibition [8]: < 10%

Compound: Nc1sc(-c2ccc(F)cc2)c(Cc2ccc(Cl)cc2)c1C(=O)c1ccc(Cl)cc1
- fold change (FC) [1]: 5.3
- inhibition [2]: 55%
- fold change (FC) [3]: 4.1
- inhibition [4]: 53%
- inhibition [5]: < 10%
- Ratio [6]: 3
- inhibition [7]: < 10%
- inhibition [8]: < 10%

Compound: Nc1sc(-c2ccccc2)c(Cc2ccc(OC(F)(F)F)cc2)c1C(=O)c1ccc(Cl)cc1
- fold change (FC) [1]: 8.2
- inhibition [2]: 69%
- fold change (FC) [3]: 6.6
- inhibition [4]: 68%
- inhibition [5]: < 10%
- Ratio [6]: 3
- inhibition [7]: < 10%
- inhibition [8]: < 10%

Compound: COc1ccc(Cc2c(-c3ccc(OC)cc3)sc(N)c2C(=O)c2ccc(Cl)cc2)cc1
- fold change (FC) [1]: 5.1
- inhibition [2]: 50%
- fold change (FC) [3]: 4.6
- inhibition [4]: 52%
- inhibition [5]: < 10%
- Ratio [6]: 3
- inhibition [7]: < 10%
- inhibition [8]: < 10%

Compound: Nc1sc(-c2ccc(F)cc2)c(Cc2ccccc2)c1C(=O)c1ccc(Cl)cc1
- fold change (FC) [1]: 4.9
- inhibition [2]: 49%
- fold change (FC) [3]: 3.9
- inhibition [4]: 50%
- inhibition [5]: < 10%
- Ratio [6]: 3
- inhibition [7]: < 10%
- inhibition [8]: < 10%

Compound: COc1ccc(Cc2c(-c3ccccc3)sc(N)c2C(=O)c2ccc(Cl)cc2)cc1C
- fold change (FC) [1]: 8.1
- inhibition [2]: 66%
- fold change (FC) [3]: 6.1
- inhibition [4]: 66%
- inhibition [5]: < 10%
- Ratio [6]: 3
- inhibition [7]: < 10%
- inhibition [8]: < 10%

Compound: COc1cc(Cc2c(-c3ccccc3)sc(N)c2C(=O)c2ccc(Cl)cc2)cc(OC)c1OC
- fold change (FC) [1]: 4.3
- inhibition [2]: 43%
- fold change (FC) [3]: 3.8
- inhibition [4]: 47%
- inhibition [5]: < 10%
- Ratio [6]: 3
- inhibition [7]: < 10%
- inhibition [8]: < 10%
